{"source": "patent US20250213603A1", "about": "“PHARMACEUTICAL COMPOSITION FOR TREATING CANCER” (SAGA UNIVERSITY, priority 2021, published 2025)", "key": {"BV173 [1]": {"system": "BV173", "test": "Cellular uptake of TRITC-labelled CyD, confocal microscopy", "assay_type": "cell-based", "conditions": "confocal microscopy (FIG. 6)", "experimental": "The cellular uptake of FA-HP-β-CyD was evaluated as follows.\nA leukemia cell line (BV173) was used in this example. The FA-HP-β-CyD synthesized in Example 1 was used.\n10 mg HP-β-CyD or FA-HP-β-CyD and 1 mg of TRITC were dissolved in 400 μL of dimethyl sulfoxide (DMSO) with stirring for 24 hours and the solution was then gradually poured into acetone. A precipitate was obtained and was washed with water. This was freeze-dried to prepare TRITC-HP-β-CyD and TRITC-FA-HP-β-CyD.\nThe cells were then cultured at a cell density of 4×10e5 per well on a 6-well plate and were incubated with […], TRITC-HP-β-CyD, FA-HP-β-CyD, or HP-βCyD at different concentrations. A Zeiss LSM880 confocal microscope was used to observe the cells. Imaris (Zeiss) fluorescent image analysis software was used for analysis.\nThe Control refers to incubation at the same time as the other exposure groups, but without exposure to an agent. Cell localization was stained by DAPI and the cell membrane was stained with PlasMen Bright Green, and the cellular uptake of TRITC-FA-HP-β-CyD was evaluated using confocal microscopy."}, "[2]": {"system": "BV173 cells (leukemia cells)", "test": "Ventricular invasion mouse model (leukemic invasion of the central nervous system)", "assay_type": "in vivo, BRJ mice", "conditions": "HP-β-CyD 30 mg/kg", "experimental": "Here, the effect of HP-β-CyD and FA-HP-β-CyD on leukemic central nervous system invasion was test by constructing a mouse model.\nBRJ mice (female) were anesthetized (intraperitoneal administration (IP) of 100 μL of a triple anesthetic of medetomidine hydrochloride (0.75 mg/kg), mitazolam (4 mg/kg), and butorphanol tartrate (5 mg/kg)), and intrathecal transplantation was carried out, through the right coronal suture at a point 1 mm to the right of the center line defined by the sagittal suture, with a polyethylene stop tube-equipped microsyringe designed to inject BV173 cells (leukemia cells) precisely to a depth of 3 mm using a Hamilton syringe LT type needle tip style pst-3 and 25 gauge.\nThe FA-HP-β-CyD synthesized in Example 1 was used in this example.\nThe doses were set at 30 mg/kg for HP-β-CyD and 3 mg/kg for FA-HP-β-CyD by referring to the dose of HP-β-CyD for a mouse model of the hereditary lipid storage disease Niemann-Pick disease type C (NPC) (Int. J. Mol. Sci. 2021, 22, 452. https://doi.org/10.3390/ijms22010452).\n(§1) Significant difference was determined as follows. That is, the data were analyzed using a two-sided Student's t-test without a comparison table. A value of P<0.05 was considered to indicate a significant difference."}, "A549": {"system": "A549", "test": "Proliferation inhibitory action on low folate receptor-expressing cells (MTT assay)", "assay_type": "cell-based, human", "conditions": "A549, 2.5-10 mM, 72 hours (FIG. 3)", "experimental": "The proliferation inhibitory action on A549, a low folate receptor-expressing cell, was evaluated as follows.\nA human non-small cell lung cancer cell line (A549) was used in this example. The FA-HP-β-CyD synthesized in Example 1 was used.\nFor cell proliferation, 2×10^4 cells of the […] were seeded with 100 μL DMEM medium (Sigma-Aldrich, USA) per well to a flatbottom 96-well plate (Greiner Labortechnik, Hamburg, Germany), and incubation for 72 hours was carried out with exposure to HP-β-CyD and FA-HP-β-CyD at different concentrations (0 mM (control: CT), 2.5 mM, 5 mM, 7.5 mM, and 10 mM). Evaluation was then carried out using a dimethyl-thiazole-diphenyl-tetrazolium (MTT) assay (Nacalai Tesque, Japan)."}, "BV173 [3]": {"system": "BV173", "test": "Effect of autophagy inhibition on the cell proliferation inhibitory effect", "assay_type": "cell-based", "conditions": "5 mM FA-HP-β-CyD or 15 mM HP-β-CyD, chloroquine, bafilomycin A1 or LY294002 (FIG. 8)", "experimental": "(§2) The effect of autophagy inhibition on the cell proliferation inhibitory effect was evaluated as follows.\n(§3) Leukemia cell lines (K562 and BV173) were used in this example. The FA-HP-β-CyD synthesized in Example 1 was used.\n(§4) 2×10^5 of each cell with 100 μL RPMI1640 medium (Sigma-Aldrich, USA) was seeded per well to a flatbottom 96-well plate (Greiner Labortechnik, Hamburg, Germany), and treatment was carried out for 2 hours at 37° C. with 5 mM FA-HP-β-CyD and 15 mM HP-β-CyD. Pretreatment was then carried out for 24 hours with the autophagy inhibitors chloroquine (20 μM) (FUJIFILM Wako Pure Chemical Corporation), bafilomycin A1 (1 nM) (Funakoshi), or LY294002 (50 μM) (FUJIFILM Wako Pure Chemical Corporation). Cell proliferation was then evaluated using a Cell Counting Kit-8 (Dojindo, Japan), which is a modified dimethyl-thiazole-diphenyl-tetrazolium (MTT) assay.\n(§5) Here, the “CT” in FIG. 8 was evaluated as follows. Thus, 2×10^5 of each cell with 100 μL RPMI1640 medium was seeded per well to a flatbottom 96-well plate and culture was carried out for 2 hours+24 hours as in the exposure groups, but without exposure to the agent or autophagy inhibitor, and this was used as the CT. This CT was compared with the exposure groups.\nas §1"}, "K562 [4]": {"system": "K562", "test": "Effect of autophagy inhibition on the cell proliferation inhibitory effect", "assay_type": "cell-based", "conditions": "5 mM FA-HP-β-CyD or 15 mM HP-β-CyD, chloroquine, bafilomycin A1 or LY294002 (FIG. 8)", "experimental": "as §2, §3, §4, §5, §1"}, "K562-IMR": {"system": "K562-IMR", "test": "Cell proliferation inhibition, modified MTT assay (Cell Counting Kit-8)", "assay_type": "cell-based", "conditions": "incubation for 72 hours, average±SD of 3 independent experiments", "experimental": "(§6) The proliferation inhibitory action in leukemia cell lines was evaluated using a modified dimethyl-thiazole-diphenyl-tetrazolium (MTT) assay as follows.\n(§7) The hepatocyte line and leukemia cell lines (K562, BV173, Ba/F3 p190, Ba/F3 p210, MYL-R, K562-IMR, and KBM5-STI) were used in this example. The FA-HP-β-CyD synthesized in Example 1 was used.\n(§8) The cell viability was evaluated using the trypan blue dye exclusion method. Cell proliferation was evaluated using a Cell Counting Kit-8 (Dojindo, Japan), which is an MTT assay. 2×10^4 of each cell was seeded with 100 μL RPMI1640 medium (Sigma-Aldrich, USA) per well to a flatbottom 96-well plate (Greiner Labortechnik, Hamburg, Germany), and incubation for 72 hours was carried out with exposure to HP-β-CyD and FA-HP-β-CyD at different concentrations (0 mM (control: CT), 0.05 mM, 0.1 mM, 0.25 mM, 0.5 mM, and 1 mM)."}, "BV173 [5]": {"system": "BV173", "test": "Cell proliferation inhibition, modified MTT assay (Cell Counting Kit-8)", "assay_type": "cell-based", "conditions": "BV173, incubation for 72 hours, average±SD of 3 independent experiments", "experimental": "as §6, §7, §8"}, "Ba/F3 P190": {"system": "Ba/F3 P190", "test": "Cell proliferation inhibition, modified MTT assay (Cell Counting Kit-8)", "assay_type": "cell-based", "conditions": "Ba/F3 P190, incubation for 72 hours, average±SD of 3 independent experiments", "experimental": "as §6, §7, §8"}, "K562 [6]": {"system": "K562", "test": "Cell proliferation inhibition, modified MTT assay (Cell Counting Kit-8)", "assay_type": "cell-based", "conditions": "K562, incubation for 72 hours, average±SD of 3 independent experiments", "experimental": "as §6, §7, §8"}, "Ba/F3 P210": {"system": "Ba/F3 P210", "test": "Cell proliferation inhibition, modified MTT assay (Cell Counting Kit-8)", "assay_type": "cell-based", "conditions": "Ba/F3 P210, incubation for 72 hours, average±SD of 3 independent experiments", "experimental": "as §6, §7, §8"}, "KBM5-STI": {"system": "KBM5-STI", "test": "Cell proliferation inhibition, modified MTT assay (Cell Counting Kit-8)", "assay_type": "cell-based", "conditions": "incubation for 72 hours, average±SD of 3 independent experiments", "experimental": "as §6, §7, §8"}, "hepatocyte": {"system": "hepatocyte", "test": "Cell proliferation inhibition, modified MTT assay (Cell Counting Kit-8)", "assay_type": "cell-based", "conditions": "hepatocyte line, incubation for 72 hours, average±SD of 3 independent experiments", "experimental": "as §6, §7, §8"}, "MYL-R": {"system": "MYL-R", "test": "Cell proliferation inhibition, modified MTT assay (Cell Counting Kit-8)", "assay_type": "cell-based", "conditions": "incubation for 72 hours, average±SD of 3 independent experiments", "experimental": "as §6, §7, §8"}}, "data": [{"substance": "2-hydroxypropyl-β-cyclodextrin [HP-β-CyD, reference compound]", "values": [{"measurement": "cellular uptake", "setting": "BV173 [1]", "value": "almost no cellular intake"}, {"measurement": "survival in two-time administration model compared with one-time administration model", "setting": "[2]; FIG. 14 compared with FIG. 13, FA-HP-β-CyD 3 mg/kg", "value": "an extension in survival was not observed"}, {"measurement": "P versus the vehicle group (survival)", "setting": "[2]; administered two times, first and second week, FA-HP-β-CyD 3 mg/kg (FIG. 14)", "value": 0.182}, {"measurement": "P versus the vehicle group (survival)", "setting": "[2]; single administration in the second week, FA-HP-β-CyD 3 mg/kg (FIG. 13)", "value": 0.0746}, {"measurement": "cytotoxic / antitumor activity on A549 low folate receptor-expressing cells", "setting": "A549", "value": "strong cytotoxic activity"}, {"measurement": "cell proliferation inhibitory capability on addition of an autophagy inhibitor", "setting": "BV173 [3]", "value": "such an effect is absent"}, {"measurement": "cell proliferation inhibitory capability on addition of an autophagy inhibitor", "setting": "K562 [4]", "value": "such an effect is absent"}, {"measurement": "IC50", "setting": "K562-IMR", "value": "3.51 ± 0.12", "unit": "mM"}, {"measurement": "IC50", "setting": "BV173 [5]", "value": "3.46 ± 0.33", "unit": "mM"}, {"measurement": "IC50", "setting": "Ba/F3 P190", "value": "8.04 ± 0.71", "unit": "mM"}, {"measurement": "IC50", "setting": "K562 [6]", "value": "5.65 ± 0.96", "unit": "mM"}, {"measurement": "IC50", "setting": "Ba/F3 P210", "value": "9.21 ± 0.054", "unit": "mM"}, {"measurement": "IC50", "setting": "KBM5-STI", "value": "6.64 ± 0.18", "unit": "mM"}, {"measurement": "IC50", "setting": "hepatocyte", "value": "12.9 ± 2.73", "unit": "mM"}, {"measurement": "IC50", "setting": "MYL-R", "value": "8.17 ± 0.15", "unit": "mM"}]}]}
